Earlier results on one compound are cited in patent US20240050514A1, “USE OF COMPOUND, PHARMACEUTICAL COMPOSITION FOR THE TREATMENT OF IMMUNE OR METABOLIC DISORDERS, PHARMACEUTICAL COMPOSITION FOR THE TREATMENT OF ILLNESSES CAUSED BY OR ASSOCIATED WITH VIRUSES” (PROTEIMAX BIOTECNOLOGIA LTDA., priority 2021, published 2024).

The conditions of data set [1]: in vivo.
Another data set concerns the target ACE (Homo sapiens, UniProt P12821). The settings on record: read-out: inhibition constant Ki.

Sequence of ACE (P12821 30-1306, species assumed): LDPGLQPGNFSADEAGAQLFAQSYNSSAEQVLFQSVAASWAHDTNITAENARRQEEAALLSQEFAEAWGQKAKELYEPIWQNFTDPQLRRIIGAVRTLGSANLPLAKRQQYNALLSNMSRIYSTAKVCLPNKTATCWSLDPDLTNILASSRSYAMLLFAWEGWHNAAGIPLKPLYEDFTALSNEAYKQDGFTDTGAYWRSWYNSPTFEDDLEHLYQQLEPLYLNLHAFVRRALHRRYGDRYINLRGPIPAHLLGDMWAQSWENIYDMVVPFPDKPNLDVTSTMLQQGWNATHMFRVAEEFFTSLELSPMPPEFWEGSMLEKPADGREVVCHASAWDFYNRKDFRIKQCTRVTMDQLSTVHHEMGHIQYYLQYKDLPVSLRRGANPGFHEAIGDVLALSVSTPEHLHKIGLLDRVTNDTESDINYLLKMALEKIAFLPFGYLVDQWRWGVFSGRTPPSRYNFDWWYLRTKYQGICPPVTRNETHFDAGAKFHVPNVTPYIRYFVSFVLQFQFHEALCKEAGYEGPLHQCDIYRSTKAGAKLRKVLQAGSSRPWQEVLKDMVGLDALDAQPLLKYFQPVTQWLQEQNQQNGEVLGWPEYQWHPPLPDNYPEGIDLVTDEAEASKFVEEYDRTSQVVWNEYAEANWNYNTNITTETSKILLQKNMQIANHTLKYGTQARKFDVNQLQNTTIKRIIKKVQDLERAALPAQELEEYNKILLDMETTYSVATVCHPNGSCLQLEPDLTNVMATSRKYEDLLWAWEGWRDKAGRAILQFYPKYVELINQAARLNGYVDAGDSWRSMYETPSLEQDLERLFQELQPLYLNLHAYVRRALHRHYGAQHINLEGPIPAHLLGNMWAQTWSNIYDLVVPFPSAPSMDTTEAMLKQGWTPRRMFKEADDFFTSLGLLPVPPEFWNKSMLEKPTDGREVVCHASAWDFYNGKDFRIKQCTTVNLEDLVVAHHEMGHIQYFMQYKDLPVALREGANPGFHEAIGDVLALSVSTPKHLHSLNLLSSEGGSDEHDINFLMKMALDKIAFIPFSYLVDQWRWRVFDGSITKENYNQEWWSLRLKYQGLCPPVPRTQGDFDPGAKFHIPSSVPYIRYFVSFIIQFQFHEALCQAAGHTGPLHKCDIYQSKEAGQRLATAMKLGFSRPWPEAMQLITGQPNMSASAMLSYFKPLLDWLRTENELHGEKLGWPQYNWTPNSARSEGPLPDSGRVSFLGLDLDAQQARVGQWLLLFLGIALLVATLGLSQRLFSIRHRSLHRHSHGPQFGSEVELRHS

As for `CC(C)C[C@H](NC(=O)[C@H](Cc1ccccc1)NC(=O)[C@H](CCCCN)NC(=O)[C@H](Cc1ccccc1)NC(=O)[C@H](CC(N)=O)NC(=O)[C@@H](NC(=O)[C@@H]1CCCN1)C(C)C)C(=O)N[C@@H](CO)C(=O)N[C@@H](Cc1cnc[nH]1)C(=O)O` [hemopressin, PVNFKFLSH], in the data set with rats, the “basal levels of monoamine in the prefrontal cortex” value is recorded as “reduction in the basal levels of monoamine in the prefrontal cortex”; the behavior after administration entry was “induced anxiogenic and depressive behavior”. Also, the “crossing of the blood-brain barrier” value in data set [1] is “does not cross the blood-brain barrier”. Besides, the Ki on ACE is 1870 µM.

The Ki is a measure of affinity in units of concentration, obtained from inhibition or displacement.
